In the PolyMetriX glass transition set one finds glass transition temperature data, which are given here for 61 compounds.

In the case of `*/C(=C(/c1ccc(*)cc1)c1ccc(Oc2ccccc2)cc1)c1ccc(Oc2ccccc2)cc1` (repeat unit), the glass transition temperature came to 163.00 °C. `*C(=O)c1ccc2c(c1)C(=O)N(c1cccc(C(=O)c3ccccc3N3C(=O)c4ccc(*)cc4C3=O)c1)C2=O` (repeat unit) registered a glass transition temperature of 259.00 °C. The compound `*C(=O)c1ccc2c(c1)C(=O)N(c1cccc(OCCOCCOc3cccc(N4C(=O)c5ccc(*)cc5C4=O)c3)c1)C2=O` (repeat unit) had a glass transition temperature of 155.00 °C. For `*C(=O)c1ccc2c(c1)C(=O)N(c1cccc(P(=O)(c3ccc(C(F)(F)F)cc3)c3cccc(N4C(=O)c5ccc(*)cc5C4=O)c3)c1)C2=O` (repeat unit) the value was 264.00 °C.

`*C(=O)c1ccc2c(c1)C(=O)N(c1cccc(P(=O)(c3ccc(Oc4ccc(C56CC7CC(CC(C7)C5)C6)cc4)cc3)c3cccc(N4C(=O)c5ccc(*)cc5C4=O)c3)c1)C2=O` (repeat unit) showed a glass transition temperature of 305.00 °C. For `*CC(COc1ccc(C(C)(C)c2ccc(O*)cc2)cc1)OC(=O)/C=C/c1ccccc1` (repeat unit) the value was 100.60 °C. In the case of `*CC(COc1ccc(C(C)(C)c2ccc(O*)cc2)cc1)OC(=O)CCl` (repeat unit), the glass transition temperature amounted to 65.00 °C. As for `*CC(COc1ccc(C2CCCC(CC)(c3ccc(O*)cc3)C2)cc1)OC(C)=O` (repeat unit), the glass transition temperature worked out at 107.00 °C. `*CC(O)CN(CC(O)COc1ccc(C(C)(C)c2ccc(O*)cc2)cc1)c1ccc(/C=C/c2ccc([N+](=O)[O-])cc2)cc1` (repeat unit) gave a glass transition temperature of 320.00 °C.

In the case of `*CC(O)CN(CC(O)COc1ccc(C(C)(C)c2ccc(O*)cc2)cc1)c1ccc(/N=N/c2ccc([N+](=O)[O-])cc2)cc1` (repeat unit), the glass transition temperature was 59.00 °C. `*CC(O)CN(CCO)S(=O)(=O)c1ccc(-c2ccc(S(=O)(=O)N(CCO)CC(O)COc3ccc(C(C)(C)c4ccc(O*)cc4)cc3)cc2)cc1` (repeat unit) registered a glass transition temperature of 76.00 °C. For `*CC(O)COC(=O)/C=C/C(=O)Oc1ccc(C(C)(C)c2ccc(O*)cc2)cc1` (repeat unit), the glass transition temperature was found to be 32.00 °C.

Compound `*CC(O)COC(=O)CCCCCCC(=O)OCC(O)COc1ccc(C(C)(C)c2ccc(O*)cc2)cc1` (repeat unit) showed a glass transition temperature of 35.00 °C. For `*CC(O)COC(=O)CCCCCCCCCCC(=O)OCC(O)COc1ccc(C(C)(C)c2ccc(O*)cc2)cc1` (repeat unit) the value was 25.00 °C. For the compound `*CC(O)COC(=O)c1cccc(C(=O)OCC(O)COc2ccc(C(C)(C)c3ccc(O*)cc3)cc2)c1` (repeat unit), the glass transition temperature was determined as 97.00 °C. The same measure for `*CC(O)COc1ccc(C(=O)c2ccc(OCC(O)COc3ccc(C(C)(C)c4ccc(O*)cc4)cc3)cc2)cc1` (repeat unit): 120.00 °C. Regarding `*CC(O)COc1ccc(C(C)(C)C2CCC(C)(c3ccc(O*)cc3)CC2)cc1` (repeat unit), the glass transition temperature stood at 135.00 °C. In turn, `*CC(O)COc1ccc(C(C)(C)c2ccc(O*)c(Cl)c2)cc1Cl` (repeat unit) registered a glass transition temperature of 85.00 °C.

`*CC(O)COc1ccc(C(C)(C)c2ccc(OCC(O)COc3ccc(C(=O)Nc4ccc(O*)cc4)cc3)cc2)cc1` (repeat unit): the glass transition temperature worked out at 127.00 °C. `*CC(O)COc1ccc(C(C)(C)c2ccc(OCC(O)COc3cccc(NC(=O)CCCC(=O)Nc4cccc(O*)c4)c3)cc2)cc1` (repeat unit) came in with a glass transition temperature of 111.00 °C.

The compound `*CC(O)COc1ccc(C(C)(C)c2ccc(OCC(O)COc3cccc(NC(=O)CCCCCCC(=O)Nc4cccc(O*)c4)c3)cc2)cc1` (repeat unit) returned a glass transition temperature of 92.00 °C.

Turning to `*CC(O)COc1ccc(C(C)(C)c2ccc(OCC(O)COc3cccc(NC(=O)CCCCCCCCCCC(=O)Nc4cccc(O*)c4)c3)cc2)cc1` (repeat unit), the glass transition temperature worked out at 90.00 °C. With `*CC(O)COc1ccc(C(C)(C)c2ccc(OCC(O)COc3ccccc3C(=O)Nc3ccc(O*)cc3)cc2)cc1` (repeat unit), the glass transition temperature turned out to be 121.00 °C. With `*CC(O)COc1ccc(C(C)(c2ccccc2)c2ccc(O*)cc2)cc1` (repeat unit), the glass transition temperature came out at 115.00 °C. In turn, `*CC(O)COc1ccc(C2(C)CC(C)(C)c3cc(O*)ccc32)cc1` (repeat unit) registered a glass transition temperature of 120.00 °C.

As to `*CC(O)COc1ccc(C2CC(C(C)C)CCC2(C)c2ccc(O*)cc2)cc1` (repeat unit), the glass transition temperature came out at 175.00 °C. Compound `*CC(O)COc1ccc(C2CCCC(CC)(c3ccc(O*)cc3)C2)cc1` (repeat unit) showed a glass transition temperature of 140.00 °C. `*CC(O)COc1ccc(S(=O)(=O)c2ccc(O*)cc2)cc1` (repeat unit) showed a glass transition temperature of 167.50 °C. `*CCOCCOCCN1C(=O)c2ccc(C(=O)Oc3ccc(C(C)(C)c4ccc(OC(=O)c5ccc6c(c5)C(=O)N(*)C6=O)cc4)cc3)cc2C1=O` (repeat unit): the glass transition temperature stood at 118.00 °C. As to `*Oc1ccc(C(C)(C)c2cc(Cl)c(OC(*)=O)c(Cl)c2)cc1` (repeat unit), the glass transition temperature stood at 186.00 °C. `*Oc1ccc(C(C)(C)c2ccc(OC(*)(Oc3ccccc3)Oc3ccccc3)cc2)cc1` (repeat unit) had a glass transition temperature of 92.00 °C. For `*Oc1ccc(C(C)(C)c2ccc(OC(*)=O)c(C(C)C)c2)cc1C(C)C` (repeat unit) the value was 80.00 °C; for `*Oc1ccc(C(C)(C)c2ccc(OC(*)=O)c(CC)c2)cc1CC` (repeat unit), 65.00 °C; for `*Oc1ccc(C(C)(C)c2ccc(OC(*)=S)cc2)cc1` (repeat unit), 140.50 °C. As for `*Oc1ccc(C(C)(C)c2ccc(OC(=O)OCCN(CCOC(*)=O)c3ccc4[nH]c5ccccc5c4c3)cc2)cc1` (repeat unit), the glass transition temperature worked out at 90.00 °C.

Turning to `*Oc1ccc(C(C)(C)c2ccc(OC(=O)SCCCCCCSC(*)=O)cc2)cc1` (repeat unit), the glass transition temperature came out at 58.00 °C. The compound `*Oc1ccc(C(C)(C)c2ccc(OC(=O)c3ccc(C(*)=O)cc3)c(C(C)CC)c2)cc1C(C)CC` (repeat unit) returned a glass transition temperature of 90.00 °C. `*Oc1ccc(C(C)(C)c2ccc(OC(=O)c3ccc(C(=O)c4ccc(C(*)=O)cc4)cc3)cc2)cc1` (repeat unit) returned a glass transition temperature of 194.00 °C. The same measure for `*Oc1ccc(C(C)(C)c2ccc(OC(=O)c3ccc([Si](C)(C)c4ccc(C(*)=O)cc4)cc3)cc2)cc1` (repeat unit): 180.00 °C; for `*Oc1ccc(C(C)(C)c2ccc(OC(=O)c3ccc([Si](c4ccccc4)(c4ccccc4)c4ccc(C(*)=O)cc4)cc3)cc2)cc1` (repeat unit): 295.00 °C.

Take `*Oc1ccc(C(C)(C)c2ccc(OC(=O)c3cccc(C(F)(F)C(F)(F)C(F)(F)c4cccc(C(*)=O)c4)c3)cc2)cc1` (repeat unit): the glass transition temperature is 122.00 °C.

Take `*Oc1ccc(C(C)(C)c2ccc(OC(=O)c3cccc(Oc4cccc(C(*)=O)c4)c3)cc2)cc1` (repeat unit): the glass transition temperature was 85.00 °C. For `*Oc1ccc(C(C)(C)c2ccc(OC(=O)c3ccccc3-c3ccccc3C(*)=O)cc2)cc1` (repeat unit) the value was 161.00 °C; for `*Oc1ccc(C(C)(C)c2ccc(OC3(F)C(*)(F)C(F)(F)C3(F)F)cc2)cc1` (repeat unit), 98.00 °C; for `*Oc1ccc(C(C)(CC)c2ccc(OC(*)=O)c(Cl)c2)cc1Cl` (repeat unit), 142.00 °C.

On to `*Oc1ccc(C(C)(c2ccccc2)c2ccc(OC(*)=O)cc2)cc1` (repeat unit), for which the glass transition temperature came to 179.00 °C. Consider `*Oc1ccc(C(CC)(CC)c2ccc(OC(*)=S)cc2)cc1` (repeat unit), for which the glass transition temperature came out at 121.00 °C. `*Oc1ccc(C(CC)c2ccc(OC(*)=S)cc2)cc1` (repeat unit): the glass transition temperature worked out at 104.00 °C. For the compound `*Oc1ccc(C(CCC)(CCC)c2ccc(OC(*)=O)c(C)c2)cc1C` (repeat unit), the glass transition temperature is 101.00 °C. In the case of `*Oc1ccc(C(CCCC)(CCCC)c2ccc(OC(*)=O)cc2)cc1` (repeat unit), the glass transition temperature was found to be 113.00 °C. As to `*Oc1ccc(C(c2ccc(OC(*)=S)cc2)C(C)C)cc1` (repeat unit), the glass transition temperature worked out at 135.00 °C. The compound `*Oc1ccc(C(c2ccc(OC(*)=S)cc2)C(CC)CC)cc1` (repeat unit) registered a glass transition temperature of 148.00 °C. In turn, `*Oc1ccc(C2(c3ccc(OC(*)=O)c(C)c3)CC3CC2C2CCCC32)cc1C` (repeat unit) registered a glass transition temperature of 217.00 °C.

The compound `*Oc1ccc(C2(c3ccc(OC(*)=S)cc3)CCC(C)CC2)cc1` (repeat unit) yielded a glass transition temperature of 168.00 °C. The same measure for `*Oc1ccc2c(c1)C(C)(c1ccc(OC(*)=O)cc1)CC2(C)C` (repeat unit): 201.70 °C. The same measure for `*Oc1cccc(OC(=O)Oc2ccc(C(C)(C)c3ccc(OC(*)=O)cc3)cc2)c1` (repeat unit): 83.10 °C. The compound `*c1ccc(C(=O)Oc2ccc(C(C)(C)c3ccc(OC(=O)c4ccc(N5C(=O)CC(SCCOCCSC6CC(=O)N(*)C6=O)C5=O)cc4)cc3)cc2)cc1` (repeat unit) displayed a glass transition temperature of 143.00 °C. For `*c1ccc(OC(=O)c2ccc(C(=O)Oc3ccc(C4(*)NC(=O)c5ccccc54)cc3)cc2)cc1` (repeat unit) the value was 327.00 °C; for `*c1ccc(OC(=O)c2ccc(C(=O)Oc3ccc(C4(*)c5ccccc5C(=O)N4C)cc3)cc2)cc1` (repeat unit), 282.00 °C. `*c1ccc(OC(=O)c2cccc(C(=O)Oc3ccc(C4(*)OC(=O)c5ccccc54)cc3C)c2)c(C)c1` (repeat unit) displayed a glass transition temperature of 273.00 °C. `*c1ccc2c(c1)C(=O)N(c1cc(C(c3ccc(OC(C)=O)c(N4C(=O)c5ccc(C(*)(C(F)(F)F)C(F)(F)F)cc5C4=O)c3)(C(F)(F)F)C(F)(F)F)ccc1OC(C)=O)C2=O` (repeat unit): the glass transition temperature amounted to 266.50 °C.
